Here are results for 3 compounds from US8865122B2, “Methods and compositions for protein labelling” (Genentech, Inc., priority 2009, dated 2014).

In one series the test system is Hsp90. The series is described as follows: Hsp90 targeted therapy (17-AAG) treatment response monitored by microPET. The class given is in vivo, Beige nude XID mice. On the procedure: Hsp90 targeted therapy and microPET imaging. Mice were distributed into two groups (n=4) according to tumor uptake and volume as determined by ^18F-4D5ThioFab one day prior to 17-AAG treatment (Gill et al (2009) Jour. Med. Chem. 52(19):5816-5825). 17-AAG was administered to the treated group at day 0, while the control group animals were left untreated. PET imaging with ^18F-4D5ThioFab was performed at day 1 (fourteen hours after the administration of the last 17-AAG dose), day 5, and day 7. Coronal slices through the tumor of control animals and animals treated with 17-AAG one day before and one day after therapy are shown in FIG. 5a. […] The renal clearance of ^18F-4D5ThioFab was predominant with significant accumulation of radioactivity in the bladder and high uptake in the renal cortex (Table 3). The hepatobiliary route also contributed to tracer excretion leading to accumulation of radioactive metabolites in the large intestine and gall bladder while the retention of radioactivity in the liver was relatively low. […]
Mice were anesthetized with 3% sevoflurane and inoculated i.v. via the tail vein catheter with 0.3-0.4 mCi of ^18F-Thio4D5Fab in isotonic solution (50-100 μL). […] Body temperature was measured by a rectal probe and maintained by warm air. […]

The next series relates to HER2. The conditions noted are these: after 17-AAG, BT474 xenograft, cited from earlier work.
Series [1] is described as follows: water solubility observation. The class given is physicochemical. From the text: 4 or [^18F]FPEG4N3 with methods B and C. […] Therefore, method C may be well suited for general radiochemical application facilitating the development of a consistent radiochemical process for the production of a variety of ^18F-labeled prosthetic groups. This may have strong implications for automation and may eliminate the need for dedicating a synthesis module to a specific prosthetic group, as is the case with [^18F]SFB.

Series [2] in a line: lipophilicity (log P) measurement. The class given is physicochemical. Conditions: pH 7.4. Here is the method: After SPE treatment, method B provided [^18F] 5 with a yield of 59±4%, a radiochemical purity of 94%, and a specific activity of 5.1±1.5 Ci/μmol (determined against an HPLC standard curve of ^19F-labeled 5) in 47±1 min (n=5). The identity of [^18F] 5 was confirmed by HPLC co-elution with ^19F-labeled standard and by LC/MS analysis of the decayed product. The lipophilicity (log P) of [^18F]5 (−2.41±0.09) was measured at pH 7.4 consistent with published methods (Rodionov et al (2007) J Am Chem Soc 129:12705-12).

In the case of `C=CCNC1=C2C[C@@H](C)C[C@H](OC)[C@H](O)[C@@H](C)/C=C(\C)[C@H](OC(N)=O)[C@@H](OC)/C=C\C=C(/C)C(=O)NC(=CC1=O)C2=O` [Compound 17-AAG, 17-(allylamino)-17-demethoxygeldanamycin], the “reduction in tumor uptake of ^18F-4D5ThioFab” value with Hsp90 (day 1 after 17-AAG (three 50 mg/kg i.p. doses), compared to control group and day −1, BT474M1 xenograft) came to 50%. In addition, the “rebound of HER2 expression” value with Hsp90 (day 5 after 17-AAG, ^18F-4D5ThioFab tumor uptake) came out at 100%. Further, in the series on HER2 (^68Ga-DCHF (Smith-Jones et al)), the “return of HER2 to pretreatment levels” value was 12 days. The “reduction in HER2 levels” value with HER2 (imaged with ^68Ga-DCHF (Smith-Jones et al)) is recorded as 70%.

Turning to `[N-]=[N+]=NCCOCC[18F]` [[^18F]FPEG2N3], in series [1], the water solubility result is given as “limited water solubility”.

Usually logP stands for a log measure of how a compound divides between an organic and an aqueous phase. High values mean higher lipophilicity, low ones lower lipophilicity. With `O=C1C=CC(=O)N1CCOCCOCCOCCOCCOCCOCc1cn(CCOCCOCCOCCOCCOCCOCCOCC[18F])nn1` [[^18F]5], the logP in series [2] is -2.41 ± 0.09.
